We go through five compounds from patent US3954793A, “1-(2-Propynyl)-1 H-indazole compounds” (priority 1973, dated 1976).

Data set [1] relates to IN/WHO strain house flies. Briefly: topical application, percent kill after 24 hours, susceptible IN/WHO strain. The format is in vivo, female). Particulars: for percent kill after 24 hours, synergist alone (GS 13005 part of Table XXXI): GS 13005 0, synergist 1 μg/fly; for percent kill after 24 hours, synergist alone: insecticide 0, synergist 1 μg/fly; for percent kill after 24 hours, with Diazinon: Diazinon 0.03 + synergist 0.15 μg/fly. The method, boiled down: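 Insecticide plus synergist in acetone, 1.0 μl applied to the thorax of CO2-anesthetized 3-to-5-day-old female IN/WHO house flies, doses in μg/fly. Flies held 10 per dish, 3-5 dishes per treatment, with skim milk. Percent mortality scored after 24 h.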

Data set [2] concerns German male cockroaches (Blatella Germanicus). In words: topical application to thorax, 24 hour mortality of German male cockroaches. The format is in vivo. The conditions noted are these: for percent insect mortality, synergist alone (mobam test doses): synergist doses of Table XXXX; for percent insect mortality, synergist alone (mobam test doses) / percent insect mortality, synergist alone (GS 13005 test doses): no insecticide; for percent insect mortality, synergist alone (GS 13005 test doses): synergist doses of Table XXXXI. The procedure:
The synergistic effect with mobam of synergist compounds I-B, II-H, II-K and IV-C is further illustrated by the 24 hour mortality data of German male cockroaches (Blatella Germanicus) shown in Table XXXX. The synergists and insecticide were diluted in acetone and applied in small droplets to the thorax of the insect. These doses of synergist alone gave zero percent insect mortality.
The synergistic effect with GS 13005 of compounds I-B, II-H, II-K, II-P, II-Q, II-R and IV-C is illustrated by the 24 hour mortality of German male cockroaches shown in Table XXXXI. These doses of synergist alone caused zero percent insect mortality.

[3] abbreviates: GS 13005 0.10 + synergist 0.50 μg/fly.
The mark [4] stands for this setting: Mobam 0.20 + synergist 1 μg/fly.
The mark [5] stands for this setting: GS 13005 dose 0.08 + synergist 0.40, pretreated with synergist two hours before insecticide.
Where [6] appears, read: Mobam dose 0.12 + synergist 0.60, pretreated with synergist two hours before insecticide.
The mark [7] stands for this setting: GS 13005 0.05 + synergist 0.25 μg/fly.
Where [8] appears, read: GS 13005 0.10 + synergist 0.125 μg/fly.
The mark [9] stands for this setting: GS 13005 0.10 + synergist 0.25 μg/fly.
Setting [10] is: GS 13005 dose 0.08 + synergist 4.0, cockroaches.

Turning to `C#CCOCc1c(Cl)cccc1[N+](=O)[O-]` [II-K], the “24 hour percent mortality, Baygon with five parts II-K” value in data set [1] (Baygon 0.125 μg/fly, five parts synergist) is 83%. For the same compound, the “24 hour percent mortality, Bidrin with five parts II-K” value in data set [1] (Bidrin 0.063 μg/fly, five parts synergist) was found to be 0%; in data set [1] (Bidrin 0.13 μg/fly, five parts synergist), 57%. The “24 hour percent mortality, Dimetilan with five parts II-K” value in data set [1] (Dimetilan 0.031 μg/fly, five parts synergist) was 7%; in data set [1] (Dimetilan 0.063 μg/fly, five parts synergist), 70%; in data set [1] (Dimetilan 0.13 μg/fly, five parts synergist) it was 100%. Besides, the “percent kill after 24 hours, synergist alone (GS 13005 part of Table XXXI)” value (“percent kill … (GS 13005 part of Table XXXI)” below) in data set [1] is 10%. In addition, the “percent kill after 24 hours, with GS 13005” value (“percent kill … with GS 13005” for short) in data set [1] (setting [3]) turned out to be 100%. Further, the “24 hour percent mortality, Gardona with five parts II-K” value in data set [1] (Gardona 0.031 μg/fly, five parts synergist) is 63%; in data set [1] (Gardona 0.063 μg/fly, five parts synergist), 100%. Besides, the “24 hour percent mortality, HRS 1422 with five parts II-K” value in data set [1] (HRS 1422 0.125 μg/fly, five parts synergist) is listed as 77%. Further, in data set [1] (setting [4]), the “percent kill after 24 hours, with Mobam” value was 100%. In addition, the “24 hour percent mortality, Pyrolan with five parts II-K” value in data set [1] (Pyrolan 0.063 μg/fly, five parts synergist) is 7%; in data set [1] (Pyrolan 0.13 μg/fly, five parts synergist), 40%; in data set [1] (Pyrolan 0.25 μg/fly, five parts synergist), 80%. In addition, in data set [1], the “percent kill after 24 hours, synergist alone” value turned out to be 10%. In data set [2] (setting [5]), the “24 hour mortality, with GS 13005” value was found to be 100%. In addition, the “24 hour mortality, with Mobam” value in data set [2] (setting [6]) is 100%. Besides, in data set [2], the “percent insect mortality, synergist alone (mobam test doses)” value was “zero”. Also, the “percent insect mortality, synergist alone (GS 13005 test doses)” value in data set [2] was “zero”.

`C#CCOCc1ccc([N+](=O)[O-])cc1` [II-Q, 4-nitrobenzyl 2-propynyl ether]: in data set [1], the “percent kill … (GS 13005 part of Table XXXI)” value is reported as 0%. For the same compound, the “percent kill … with GS 13005” value is 25% in data set [1] (setting [7]), 43% in data set [1] (setting [8]), 67% in data set [1] (setting [9]) and 90% in data set [1] (setting [3]). Moreover, the “24 hour mortality, with GS 13005” value in data set [2] (setting [5]) is on record as 95%. For the same compound, in data set [2], the “percent insect mortality, synergist alone (GS 13005 test doses)” value was “zero”.

In the case of `C#CCOCc1cccc2ccccc12` [II-R, α-napthylmethyl 2-propynyl ether], in data set [1], the “percent kill after 24 hours, with Diazinon” value (“percent kill … with Diazinon” for short) is 22%; the “percent kill … (GS 13005 part of Table XXXI)” value stood at 0%; the “percent kill after 24 hours, synergist alone” value was 0%. Besides, in data set [1] (setting [8]), the “percent kill … with GS 13005” value is reported as 49%. For the same compound, the “percent kill … with GS 13005” value in data set [1] (setting [9]) is reported as 65%. Moreover, the “percent kill … with GS 13005” value in data set [1] (setting [3]) amounted to 68%. Moreover, the “24 hour mortality, with GS 13005” value in data set [2] (setting [5]) was determined as 100%. Also, the “percent insect mortality, synergist alone (GS 13005 test doses)” value in data set [2] was “zero”.

Take `C#CCOCc1ccccc1[N+](=O)[O-]` [II-P, 2-nitrobenzyl 2-propynyl ether]: in data set [1], the “percent kill … with Diazinon” value is reported as 30%. Also, in data set [1], the “percent kill … (GS 13005 part of Table XXXI)” value is on record as 0%. Further, the “percent kill … with GS 13005” value in data set [1] (setting [7]) is given as 10%; in data set [1] (setting [8]), 69%; in data set [1] (setting [9]), 85%; in data set [1] (setting [3]) it was 96%. In addition, the “percent kill after 24 hours, synergist alone” value in data set [1] is 0%. Besides, the results for the “24 hour mortality, with GS 13005” value in data set [2] (setting [5]) and in data set [2] (setting [10]) were 90% and 60%, respectively. The “percent insect mortality, synergist alone (GS 13005 test doses)” value in data set [2] is “zero”.

Take `C#CCOC(c1ccc(Cl)cc1)C(C)[N+](=O)[O-]` (stereo not drawn) [IV-C]: the “percent kill … with Diazinon” value in data set [1] came out at 29%. Moreover, the “percent kill … with GS 13005” value in data set [1] (setting [7]) is reported as 9%; in data set [1] (setting [8]), 63%; in data set [1] (setting [9]) it was 75%; in data set [1] (setting [3]), 89%. In addition, the “percent kill after 24 hours, with Mobam” value was 39% in data set [1] (Mobam 0.20 + synergist 0.25 μg/fly), 60% in data set [1] (Mobam 0.20 + synergist 0.50 μg/fly) and 64% in data set [1] (setting [4]). Further, the “percent kill after 24 hours, synergist alone” value in data set [1] is on record as 0%. In addition, the “24 hour mortality, with GS 13005” value was found to be 90% in data set [2] (setting [5]) and 30% in data set [2] (setting [10]). Also, the “24 hour mortality, with Mobam” value turned out to be 60% in data set [2] (setting [6]) and 40% in data set [2] (Mobam dose 0.16 + synergist 0.80, cockroaches). In addition, the “percent insect mortality, synergist alone (mobam test doses)” value in data set [2] is “zero”. Further, in data set [2], the “percent insect mortality, synergist alone (GS 13005 test doses)” value is recorded as “zero”.
